These results are taken from paper PMC4257840 (Journal of Medicinal Chemistry, 2014).

The target in one data set is T1, Der p 1 (Dermatophagoides pteronyssinus, UniProt P08176).
T1 sequence (P08176 99-320): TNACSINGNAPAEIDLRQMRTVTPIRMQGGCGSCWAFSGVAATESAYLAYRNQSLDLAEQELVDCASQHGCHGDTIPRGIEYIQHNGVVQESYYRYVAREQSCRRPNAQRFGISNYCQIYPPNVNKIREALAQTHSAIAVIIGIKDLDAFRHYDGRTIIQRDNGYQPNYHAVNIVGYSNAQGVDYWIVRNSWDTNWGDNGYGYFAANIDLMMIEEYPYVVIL
Put plainly: biochemical. It is filed as biochemical.

Data set [1] can be described thus: Measurement of LogD7.4 (n-octanol/PBS shake). Type of data set: physicochemical. The following applies: single determination, n-octanol/PBS pH 7.4; read-out: Log D7.4. As to the method:
Appendix 4. Measurement of LogD7.4
Test compounds (~1 mg) were weighed into 2 mL HPLC vials. n- Octanol (0.7 mL), pre-saturated with 10 mM phosphate buffered saline pH7.4 (PBS), was added to each vial followed b y PBS (0. 7 mL), which had been pre-saturat ed with n-octanol. The mixtures were shaken for 90 min and then centrifuged for 10 min at 4,000 rpm. The upper organic l ayer (0.2 m L) and the aqueous la yer (0.5 mL) were removed from each vial and anal yz e d b y LC -MS. Mass spect ral anal ysis was used to confirm peak identity whilst the concentration of compound was assessed by a diode arra y det ecto r. The logD for each compound was calculated b y takin g th e lo g of its concentration ratio between the oct anol and aqueous la ye r s.Given the robustness of the assa y and the fact that the info rmation was us ed onl y for gen eral guid ance, thes e measu rements were based on singlicate det erminations.

A further data set deals with human liver Cat B (Homo sapiens, UniProt P07858). Put plainly: Cathepsin B inhibition assay. The following applies: for IC50: read-out: Cat B IC50, mean ± SE.
Data set [2] has as its system nonsensitized rats challenged with a natural mixture of HDM allergens. The note with it: i.t. aerosol typically 60-360 min prior to allergen challenge, unsensitised BN rats.

By IC50 is commonly meant the concentration that inhibits the measured activity by half.

Like-named read-outs stand apart in the source and are kept apart here.

Description for Der p 1: Automated screening of inhibitory activity toward group 1 HDM peptidase allergens was performed as described elsewhere[25],[43] with the minor modification that Der p 1 or Der f 1 were incubated with inhibitors for 20 min prior to initiation of reactions by addition of substrate. In initial screening, the activity of each compound was measured using a series of 10 doubling dilutions from a starting concentration of 50 μM. […] Assays were performed in triplicate for calculation of mean ± SE IC50 values.
Description for human liver Cat B: Inhibition of Cat B was measured as described with modifications.[25] […] Progress curves were followed at 30 °C by detection of fluorescence at 320/420 nm (excitation/emission).
In all cases, for reactions involving inhibitors, the amount of reaction buffer was adjusted to 60 μL, the inhibitor added as a 10 μL aliquot, and incubated for 20 min with the enzyme prior to reaction start.

Take `Cc1n[nH]c(C)c1C(=O)N[C@H](C(=O)N[C@@H](C)C(=O)NC(C(=O)C(=O)NCc1ccccc1)C(C)C)C(C)(C)C` (mixture of isomers) [Compound 30]: inhibition on Der p 1 was half-maximal at 0.067 ± 0.01 µM (IC50).
`CC(C)[C@H](NC(=O)[C@H](C)NC(=O)[C@@H](NC(=O)c1ccccc1)C(C)(C)C)C(=O)C(=O)NCC(=O)N1CCN(C)CC1` [Compound 48]: the IC50 is 0.014 ± 0.002 µM against Der p 1 (mean ± SE) and greater than 2.5 µM at human liver Cat B. Also, in data set [1], the logD at 1.5 h was 1. Further, on human liver Cat B (at 2.5 μM), the “inhibition of Cat B” value is on record as “no significant inhibition”.
In the case of `CC(C)[C@H](NC(=O)[C@H](C)NC(=O)[C@H](Cc1ccccc1)NC(=O)c1ccccc1)C(=O)C(=O)NCC(=O)N1CCN(C(C)C)CC1` [Compound 49], the results for the IC50 at Der p 1 (mean ± SE) and on human liver Cat B were 0.004 ± 0.001 µM and greater than 2.5 µM, respectively. In data set [1], the logD at 1.5 h was 1.6.
Turning to `CC(C)[C@H](NC(=O)[C@H](C)NC(=O)[C@@H](NC(=O)c1ccccc1)C(C)(C)C)C(=O)C(=O)NCC(=O)N1CCc2ccccc2C1` [Compound 51], the IC50 on Der p 1 came to 0.006 µM; at human liver Cat B it was 0.511 ± 0.088 µM. In addition, in data set [1], the logD at 1.5 h came to 3.5.
For the compound `CC(C)[C@H](NC(=O)[C@H](C)NC(=O)[C@H](Cc1ccccc1)NC(=O)c1ccccc1)C(=O)C(=O)NCC(=O)N1CCN(C)CC1` [Compound 45, N-[(S)-1-((S)-1-{(S)-2-Methyl-1-[2-(4-methyl-piperazin-1-yl)-2-oxo-ethylaminooxalyl]-propylcarbamoyl}-ethylcarbamoyl)-2-phenyl-ethyl]-benzamide], the IC50 at Der p 1 (mean ± SE) was found to be 0.014 ± 0.001 µM; on human liver Cat B, 0.544 ± 0.04 µM. Besides, in data set [1], the logD at 1.5 h came out at 1.3. The “duration of protection: trend of inhibition of eosinophil recruitment with increasing pre-treatment interval” value in data set [2] is “waned”.
For `CC(C)[C@H](NC(=O)[C@H](C)NC(=O)[C@H](Cc1ccccc1)NC(=O)c1ccccc1)C(=O)C(=O)NCC(=O)N1CCOCC1` [Compound 47, N-((S)-1-{(S)-1-[(S)-2-Methyl-1-(2-morpholin-4-yl-2-oxo-ethylaminooxalyl)-propylcarbamoyl]-ethylcarbamoyl}-2-phenyl-ethyl)-benzamide] the same measures were 0.009 ± 0.001 µM, 0.088 ± 0.01 µM, 1.7 and “rise to a peak”.
For `CC(C)[C@H](NC(=O)[C@H](C)NC(=O)[C@@H](NC(=O)c1ccccc1)C(C)(C)c1ccccc1)C(=O)C(=O)NCc1ccccc1` [Compound 23], the figures for the IC50 at Der p 1 (mean ± SE) and at human liver Cat B were 0.042 ± 0.006 µM and 0.446 ± 0.011 µM, respectively.
`CC(C)[C@H](NC(=O)[C@H](C)NC(=O)[C@@H](NC(=O)c1ccnc2ccccc12)C(C)(C)C)C(=O)C(=O)NCC(=O)N1CCN(C(C)C)CC1` [Compound 55]: the IC50 was 0.003 µM against Der p 1 (mean ± SE) and greater than 2.5 µM at human liver Cat B.
For `CNC(=O)C(=O)[C@@H](NC(=O)[C@H](C)NC(=O)[C@@H](NC(=O)c1ccccc1)C(C)(C)C)C(C)C` [Compound 37], in that order: 0.024 ± 0.005 µM and 0.494 ± 0.02 µM.
For `CC(C)[C@H](NC(=O)[C@H](C)NC(=O)[C@@H](NC(=O)c1ccccc1)C(C)(C)C)C(=O)C(=O)NCc1ccc(CN(C)C)cc1` [Compound 41] the same measures were 0.008 ± 0.001 µM and 0.242 ± 0.031 µM.
For `CC(C)[C@H](NC(=O)[C@H](C)NC(=O)[C@@H](NC(=O)C1CCN(C)CC1)C(C)(C)C)C(=O)C(=O)NCc1ccccc1` [Compound 31], in that order: 0.019 ± 0.002 µM and 0.283 ± 0.05 µM.
On to `CC(C)[C@H](NC(=O)[C@H](C)NC(=O)[C@@H](NC(=O)c1ccccc1)C(C)(C)C)C(=O)C(=O)NCc1cn[nH]c1` [Compound 44], for which the IC50 is 0.011 ± 0.002 µM against Der p 1 and 0.367 ± 0.034 µM at human liver Cat B.
Regarding `CC(C)[C@H](NC(=O)[C@H](C)NC(=O)[C@@H](NC(=O)c1ccccc1)C(C)(C)C)C(=O)C(=O)N[C@H](C)c1ccccc1` [Compound 42], the IC50 against Der p 1 (mean ± SE) was found to be 0.017 ± 0.002 µM; at human liver Cat B, 0.459 ± 0.028 µM.
For `CC(C)C(NC(=O)[C@H](C)NC(=O)[C@H](Cc1ccccc1)NC(=O)c1ccccc1)C(=O)C(=O)NC1CCOCC1` (mixture of isomers) [Compound 33], in that order: 0.055 ± 0.004 µM and 0.311 ± 0.006 µM.
For `CC(C)[C@H](NC(=O)[C@H](C)NC(=O)[C@@H](NC(=O)c1ccccc1)C(C)(C)C)C(=O)C(N)=O` [Compound 36], the IC50 against Der p 1 came to 0.006 ± 0.002 µM; on human liver Cat B it was 0.02 ± 0.003 µM. The logD at 1.5 h in data set [1] is 1.7.
In the case of `CC(C)[C@H](NC(=O)[C@H](C)NC(=O)[C@@H](N1Cc2ccccc2C1=O)C(C)(C)C)C(=O)C(=O)NCc1ccc(S(N)(=O)=O)cc1` [Compound 56], the IC50 against Der p 1 (mean ± SE) is 0.003 µM; at human liver Cat B, 3.05 ± 1.13 µM.
For `CC(C)[C@H](NC(=O)[C@H](C)NC(=O)[C@H](Cc1ccccc1)NC(=O)c1ccccc1)C(=O)C(=O)N[C@@H](C)C(=O)N1CCN(C)CC1` [Compound 50], in that order: 0.01 ± 0.001 µM and greater than 2.5 µM.
In the case of `CC(C)[C@H](NC(=O)[C@H](C)NC(=O)[C@H](Cc1ccccc1)NC(=O)c1ccccc1)C(=O)C(=O)NCC(=O)N1CCCCC1` [Compound 46], the IC50 is 0.014 ± 0.003 µM against Der p 1 and 0.081 ± 0.006 µM at human liver Cat B. Also, the logD at 1.5 h in data set [1] was 2.6.
Regarding `C[C@H](NC(=O)[C@H](Cc1ccccc1)NC(=O)c1ccccc1)C(=O)N[C@H](C(=O)C(=O)NC1CCCCC1)C(C)(C)C` [Compound 21], at Der p 1 (mean ± SE), the IC50 stood at 9.17 ± 0.88 µM.
On the same count and under the same terms, the figure for `CCCC[C@H](NC(=O)[C@H](C)NC(=O)[C@H](Cc1ccccc1)NC(=O)c1ccccc1)C(=O)CN1CCCC1` [Compound 3] is 0.065 µM; for `CC(C)[C@H](NC(=O)[C@H](C)NC(=O)[C@@H](NC(=O)c1ccccc1)C(C)(C)C)C(=O)C(=O)NCc1ccc(C(F)(F)F)cc1` [Compound 40] it is 0.047 ± 0.007 µM.
`CNC(=O)c1ccc(CNC(=O)C(=O)[C@@H](NC(=O)[C@H](C)NC(=O)[C@@H](N2Cc3ccccc3C2=O)C(C)(C)C)C(C)C)cc1` [Compound 57]: the IC50 at Der p 1 (mean ± SE) is 0.004 µM; at human liver Cat B, 3.57 ± 0.85 µM. In data set [2], the “duration of protection: trend of inhibition of eosinophil recruitment with increasing pre-treatment interval” value is “rise to a peak”.
The compound `CCCC[C@H](NC(=O)[C@H](C)NC(=O)[C@H](Cc1ccccc1)NC(=O)c1ccccc1)C(=O)C(=O)N1CCCC1` [Compound 4] came in with an IC50 on Der p 1 (mean ± SE) of 0.997 µM.
In the case of `CCC[C@H](NC(=O)[C@H](Cc1ccccc1)NC(=O)c1ccccc1)C(=O)N[C@H](C(=O)C(=O)NC1CCCCC1)C(C)C` [Compound 24], the 50% inhibitory concentration (IC50) was 0.164 ± 0.024 µM against Der p 1 (mean ± SE) and 0.067 ± 0.001 µM at human liver Cat B.
In the case of `CC(C)[C@H](NC(=O)[C@H](C)NC(=O)[C@@H](NC(=O)c1cccc2ccccc12)C(C)(C)C)C(=O)C(=O)NCc1ccc(S(N)(=O)=O)cc1` [Compound 59], the figures for the IC50 against Der p 1 (mean ± SE) and at human liver Cat B were 0.004 µM and 0.532 ± 0.136 µM, respectively.
As for `CC(C)[C@H](NC(=O)[C@H](C)NC(=O)[C@@H](NC(=O)c1ccccc1)C12CC3CC(CC(C3)C1)C2)C(=O)C(=O)NCC(=O)N1CCN(C)CC1` [Compound 54], the values for the 50% inhibitory concentration (IC50) at Der p 1 (mean ± SE) and on human liver Cat B were 0.005 µM and greater than 2.5 µM, respectively. Moreover, the “duration of protection: trend of inhibition of eosinophil recruitment with increasing pre-treatment interval” value in data set [2] is reported as “waned”.
Turning to `CC(C)[C@H](NC(=O)[C@H](C)NC(=O)[C@H](Cc1ccccc1)NC(=O)c1ccccc1)C(=O)C(=O)NC1CCN(C)CC1` [Compound 34], inhibition on Der p 1 (mean ± SE) was half-maximal at 0.115 ± 0.014 µM (IC50).
With `CC(C)[C@H](NC(=O)[C@H](C)NC(=O)[C@@H](NC(=O)c1cccc2ccccc12)C(C)(C)C)C(=O)C(=O)NC1CCCCC1` [Compound 25], the IC50 at Der p 1 (mean ± SE) came out at 0.02 ± 0.003 µM; on human liver Cat B, 0.721 ± 0.035 µM. Also, the logD at 1.5 h in data set [1] was determined as 4.3.
For the compound `CC(C)[C@H](NC(=O)[C@H](C)NC(=O)[C@@H](NC(=O)c1ccccc1)C(C)(C)C)C(=O)C(=O)NCc1ccc(S(N)(=O)=O)cc1` [Compound 39], the IC50 came to 0.006 ± 0.001 µM at Der p 1 (mean ± SE) and 0.984 ± 0.164 µM on human liver Cat B.
As to `CC(C)[C@H](NC(=O)[C@H](C)NC(=O)[C@H](Cc1ccccc1)NC(=O)c1ccccc1)C(=O)C(=O)NCc1ccccc1` [Compound 20], the IC50 at Der p 1 (mean ± SE) turned out to be 0.012 ± 0.002 µM; on human liver Cat B, 0.05 ± 0.005 µM.
For `CC(C)[C@H](NC(=O)[C@H](C)NC(=O)[C@@H](N1Cc2ccccc2C1=O)C(C)(C)C)C(=O)C(=O)NCc1ccc(CN(C)C)cc1` [Compound 58], in that order: 0.004 µM and 2.85 ± 0.662 µM.
On to `CC(C)[C@H](NC(=O)[C@H](C)NC(=O)[C@@H](NC(=O)c1ccnc2ccccc12)C(C)(C)C)C(=O)C(=O)NC1CCCCC1` [Compound 26], for which the IC50 at Der p 1 (mean ± SE) was determined as 0.013 ± 0.002 µM; at human liver Cat B, 0.628 ± 0.047 µM. For the same compound, in data set [1], the logD at 1.5 h came to 3.5.
Regarding `CC(C)[C@H](NC(=O)[C@H](C)NC(=O)[C@@H](NC(=O)c1ccccc1)C(C)(C)C)C(=O)C(=O)N[C@@H](C)c1ccccc1` [Compound 43], inhibition against Der p 1 (mean ± SE) was half-maximal at 0.117 ± 0.034 µM (IC50).
